In paper PMC7893776, “Selecting an anti-malarial clinical candidate from two potent dihydroisoquinolones” (Malaria Journal, 2021):
≈ marks a conversion by molar mass, not a printed value.

What was measured:
rat plasma proteins = experiment: Plasma protein binding (RED), rat; format: in vitro ADME; settings: average of 20, 4, 0.8 µM
Experimental: (§1) A Rapid Equilibrium Dialysis (RED) Plate (Thermo Scientific, catalog #, PI-90007) was used to determine the percentage of compound binding to plasma proteins. The positive control for this experiment was propranolol-HCl (10 mM in DMSO) and the internal standard was warfarin (2 µM in methanol). 10 mM stocks of compound in DMSO were diluted with DMSO acetonitrile (1:4, v:v) to three different intermediate concentrations: high (2 mM), medium (0.4 mM) and low (0.08 mM). A 10 mM stock of propranolol in DMSO was diluted to 0.4 mM concentration in DMSO:acetonitrile (1:4 v:v). In 16 Eppendorf tubes, the control (10 µL) or each of three compound dilutions (10 µL) were each added to separate aliquots of mouse, rat, dog, and human plasma (990 µL). In the RED plate, potassium phosphate buffer (500 µL, 0.1 M, pH 7.4, 37 °C) was placed in every white well and each plasma/compound mixture was added to each of 3 red wells. […] The compounds and internal standard were detected by selected ion recording (SIR). Using the peak area ratio of compound to warfarin from the SIR spectra, the percentage of free compound [1] and bound compound [2] were calculated using the following equations: (1) % free = (concentration buffer chamber/concentration plasma chamber)*100, and (2) % bound = 100 − % free.

Caco-2 cells = experiment: Caco-2 permeability; format: in vitro ADME; settings: for Caco-2 Efflux Ratio: B→A / A→B
Experimental: Caco-2 cells were maintained at 37 °C in a humidified incubator with an atmosphere of 5% CO2. The cells were cultured in Eagle's Minimum Essential Medium (EMEM) containing 20% fetal bovine serum (FBS) in 75 cm^2 flasks, supplemented with 100 units/ml of penicillin and 100 µg/mL of streptomycin. The Caco-2 cells were seeded onto inserts of a 96-well plate (HTS-Transwell inserts, surface area: 0.143 cm^2, Corning) at a cell density of 0.5 × 10^5 cells/insert. The culture medium was replaced every 2 days, and the cells were maintained for 7 days at 37 °C and 5% CO2. Caco-2 cell monolayers with trans epithelial electrical resistance (TEER) values greater than 400 Ω cm^2 were used for the subsequent assays. The permeability assay was initiated by adding an appropriate volume of HBSS/HEPES containing test compounds to either the apical (A to B) or basolateral (B to A) side of the monolayer, then adding the blank HBSS/HEPES buffer in the receiving compartment, the basolateral or apical side of the monolayer. The Caco-2 cell monolayers were then incubated for 2 h at 37 °C. To make a sample plate, fractions were collected from the basolateral side or apical side and quenched by adding onefold volume of acetonitrile with internal standard (2 µM warfarin) to each well. In a reference plate, the above HBSS/HEPES buffer containing test compounds were diluted with quenching solvent the same as that in the sample plate. 10 µL of supernatants were injected and analysis by UPLC/MS (Waters; Milford, MA). The test compound concentrations were quantified by comparing the sample well to the reference well via peak areas. The A→B (or B→A) apparent permeability coefficients (Papp, 10^–6 cm/s) of each compound were calculated using the equation, Papp = dQ/dt × 1/AC0. The flux of a drug across the monolayer was dQ/dt (µmol/s). The initial drug concentration on the apical or basolateral side was C0 (µM). The surface area of the monolayer was A (cm^2). The efflux ratio is the ratio of apparent permeability for a test compound in the basolateral to apical (B → A) direction relative to that in the A → B direction. All compounds were tested in triplicate.

dog plasma proteins = experiment: Plasma protein binding (RED), dog; format: in vitro ADME; settings: average of 20, 4, 0.8 µM
Experimental: as §1

Thermodynamic solubility = format: physicochemical; settings: for solubility thermodynamic: 37 °C, thermodynamic from solid
Experimental: Solubility was also evaluated in fasted (FaSSIF-V2) or fed (FeSSIF-V2) state simulated intestinal fluids. These media contain lipolysis breakdown products (glycerol monooleate and oleic acid) in addition to bile salt (sodium taurocholate) and phospholipid (lecithin) and were buffered to simulate approximate pH conditions found in the fasted (pH 6.5) or fed (pH 5.8) state small intestine. Control media (blank FaSSIF-V2 and FeSSIF-V2 buffers) lacking bile salt, phospholipid and lipolysis products were also investigated.
Compounds were weighed into individual screw cap polypropylene tubes and aqueous buffer, 0.1 N HCl, or simulated intestinal fluid added to provide a compound concentration of between 700 and 5000 μg/mL. Samples were vortexed, placed in a 37 °C incubator, and mixed on an orbital shaker (IKA® VXR basic Vibrax® orbital shaker) set at 600 rpm. Samples were regularly examined to ensure excess solid was present. Sampling was conducted after 1, 4, 6, and 24 h by centrifuging each sample at 10,000 rpm for 3 min, transferring a 200 µL aliquot into fresh Eppendorf tubes, and centrifuging again at 10,000 rpm for 3 min. Duplicate aliquots of the final supernatant were removed and diluted to an appropriate analytical concentration in 50% aqueous methanol prior to analysis by HPLC. HPLC analysis was conducted on a Waters 2695 HPLC system coupled to a Waters 2487 dual absorbance wavelength detector, analyzing at 254 nm. A Phenomenex Luna C18(2) column (3 µm, 50 × 2.0 mm i.d.) was used for analysis, with the column temperature maintained at 40 °C. Concentrations were quantified by comparison to a calibration curve prepared over the concentration range in 50% aqueous methanol. The mobile phase consisted of water, methanol, and 1% aqueous formic acid. Separations were conducted using a flow rate of 0.4 mL/min and an injection volume of 5 µL. Processed samples were maintained in the autosampler at a temperature of 10 °C.

[1] = Storage stability of samples at −80 °C; settings: stored at − 80 °C for more than 14 days, ± 15% variance
Excerpt: All plasma samples that were shipped elsewhere from the testing facility were all analyzed within the validated stability time period.

N#Cc1cc(NC(=O)C2c3ccccc3C(=O)N(CC(F)(F)F)C2c2cccnc2)ccc1F (racemic) [(r)-SJ733]
% bound (rat plasma proteins): 90.0 ± 1.7% | Permeability, Caco-2 (Caco-2 cells; Apical to Basal): 9.4 ± 1.6 10^–6 cm/s | Permeability, Caco-2 (Caco-2 cells; Basolateral to Apical): 11.0 ± 1.6 10^–6 cm/s | Caco-2 Efflux Ratio (Caco-2 cells): 1.17 ± 0.04 | % bound (dog plasma proteins): 88.3 ± 3.1%

N#Cc1cc(NC(=O)C2c3ccccc3C(=O)N(CC(F)(F)F)C2c2cn[nH]c2)ccc1F (racemic) [(r)-SJ311]
% bound (rat plasma proteins): 91.0 ± 0.1% | Permeability, Caco-2 (Caco-2 cells; Apical to Basal): 12.5 ± 0.7 10^–6 cm/s | Permeability, Caco-2 (Caco-2 cells; Basolateral to Apical): 16.6 ± 2.0 10^–6 cm/s | Caco-2 Efflux Ratio (Caco-2 cells): 1.34 ± 0.21 | % bound (dog plasma proteins): 90.0 ± 1.0%

N#Cc1cc(NC(=O)[C@H]2c3ccccc3C(=O)N(CC(F)(F)F)[C@@H]2c2cccnc2)ccc1F [(+)-SJ733]
Solubility (Thermodynamic solubility; 0.1 N HCl pH 1, 37°C, 1 h): 6817 µM (≈ 3190 µg/mL) | Solubility (Thermodynamic solubility; 0.1 N HCl pH 1, 37°C, 4 h): 7321 µM (≈ 3430 µg/mL) | Solubility (Thermodynamic solubility; 0.1 N HCl pH 1, 37°C, 6 h): 7376 µM (≈ 3450 µg/mL) | Solubility (Thermodynamic solubility; 0.1 N HCl pH 1, 37°C, 24 h): 7891 µM (≈ 3700 µg/mL) | Solubility (Thermodynamic solubility; FaSSIF blank pH 6.5, 37°C, 1 h): 81 µM (≈ 37.9 µg/mL) | Solubility (Thermodynamic solubility; FaSSIF blank pH 6.5, 37°C, 4 h): 92 µM (≈ 43.1 µg/mL) | Solubility (Thermodynamic solubility; FaSSIF blank pH 6.5, 37°C, 6 h): 96 µM (≈ 45 µg/mL) | Solubility (Thermodynamic solubility; FaSSIF blank pH 6.5, 37°C, 24 h): 100 µM (≈ 46.8 µg/mL) | Solubility (Thermodynamic solubility; FaSSIF-V2 pH 6.5, 37°C, 1 h): 199 µM (≈ 93.2 µg/mL) | Solubility (Thermodynamic solubility; FaSSIF-V2 pH 6.5, 37°C, 4 h): 216 µM (≈ 101 µg/mL) | Solubility (Thermodynamic solubility; FaSSIF-V2 pH 6.5, 37°C, 24 h): 207 µM (≈ 97 µg/mL) | Solubility (Thermodynamic solubility; FeSSIF blank pH 5.8, 37°C, 1 h): 83 µM (≈ 38.9 µg/mL) | Solubility (Thermodynamic solubility; FeSSIF blank pH 5.8, 37°C, 4 h): 88 µM (≈ 41.2 µg/mL) | Solubility (Thermodynamic solubility; FeSSIF blank pH 5.8, 37°C, 6 h): 100 µM (≈ 46.8 µg/mL) | Solubility (Thermodynamic solubility; FeSSIF blank pH 5.8, 37°C, 24 h): 107 µM (≈ 50.1 µg/mL) | Solubility (Thermodynamic solubility; FeSSIF-V2 pH 5.8, 37°C, 1 h): 237 µM (≈ 111 µg/mL) | Solubility (Thermodynamic solubility; FeSSIF-V2 pH 5.8, 37°C, 4 h): 250 µM (≈ 117 µg/mL) | Solubility (Thermodynamic solubility; FeSSIF-V2 pH 5.8, 37°C, 24 h): 248 µM (≈ 116 µg/mL) | Solubility (Thermodynamic solubility; Phosphate buffer pH 7.4, 37°C, 1 h): 207 µM (≈ 97 µg/mL) | Solubility (Thermodynamic solubility; Phosphate buffer pH 7.4, 37°C, 4 h): 250 µM (≈ 117 µg/mL) | Solubility (Thermodynamic solubility; Phosphate buffer pH 7.4, 37°C, 24 h): 250 µM (≈ 117 µg/mL)

N#Cc1cc(NC(=O)[C@H]2c3ccccc3C(=O)N(CC(F)(F)F)[C@@H]2c2cccnc2)ccc1F (racemic) [SJ733]
solubility thermodynamic (Thermodynamic solubility; 0.1 N HCl, pH 1, simulated gastric fluid, strongly acidic conditions): > 3000 µg/mL | solubility thermodynamic (Thermodynamic solubility; aqueous buffer, pH 7.4, 6.5, and 5.8 aqueous buffers): 81 to 237 µM | storage stability [1]: stable

N#Cc1cc(NC(=O)[C@H]2c3ccccc3C(=O)N(CC(F)(F)F)[C@@H]2c2cn[nH]c2)ccc1F [SJ311]
storage stability [1]: stable
